Reference: the supplement of paper PMC10307832

What was measured:
Assay in all cases: relative viability (nuclei count vs DMSO), 5 days (fraction); higher = more cells survive
[1] = compound: CC(=O)c1c(C)c2cnc(Nc3ccc(N4CCNCC4)cn3)nc2n(C2CCCC2)c1=O [Palbociclib] + Cc1nc(Nc2ncc(C(=O)Nc3c(C)cccc3Cl)s2)cc(N2CCN(CCO)CC2)n1 [Dasatinib] (partner 0.075 µM)
In short: (§1)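 For relative viability, nuclei counts in treated wells were divided by those in vehicle wells. Lung cancer cell lines had been pin-tool dosed in 1536-well plates the day after seeding and cultured for 5 days, then fixed and stained in one step (final 0.05% Triton X-100, 1% formaldehyde, 1 ug/ml Hoechst) and imaged at 4×. Doses were one drug alone or a fixed anchor-drug dose plus five library-drug doses (not always all listed) in √10 steps, and values are duplicate-plate medians.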

[2] = compound: CC(=O)c1c(C)c2cnc(Nc3ccc(N4CCNCC4)cn3)nc2n(C2CCCC2)c1=O [Palbociclib] + C[C@@H](Oc1cc(-c2cnn(C3CCNCC3)c2)cnc1N)c1c(Cl)ccc(F)c1Cl [Crizotinib] (partner 1 µM)
In short: as §1

[3] = compound: CC(=O)c1c(C)c2cnc(Nc3ccc(N4CCNCC4)cn3)nc2n(C2CCCC2)c1=O [Palbociclib] + CS(=O)(=O)N1CCN(Cc2cc3nc(-c4cccc5[nH]ncc45)nc(N4CCOCC4)c3s2)CC1 [Pictilisib] (partner 1 µM)
In short: as §1

[4] = compound: CC(=O)c1c(C)c2cnc(Nc3ccc(N4CCNCC4)cn3)nc2n(C2CCCC2)c1=O [Palbociclib] + Cc1nc(NC(=O)N2CCC[C@H]2C(N)=O)sc1-c1ccnc(C(C)(C)C(F)(F)F)c1 [Alpelisib] (partner 2 µM)
In short: as §1

Cell Line | relative viability ([1]; first compound 0.01 µM) | relative viability ([1]; first compound 0.03162 µM) | relative viability ([1]; first compound 0.1 µM) | relative viability ([1]; first compound 0.3162 µM) | relative viability ([1]; first compound 1 µM) | relative viability ([2]; first compound 0.01 µM) | relative viability ([2]; first compound 0.1 µM) | relative viability ([2]; first compound 0.3162 µM) | relative viability ([2]; first compound 1 µM) | relative viability ([3]; first compound 0.01 µM) | relative viability ([3]; first compound 0.1 µM) | relative viability ([3]; first compound 0.3162 µM) | relative viability ([3]; first compound 1 µM) | relative viability ([4]; first compound 0.01 µM) | relative viability ([4]; first compound 0.1 µM) | relative viability ([4]; first compound 0.3162 µM) | relative viability ([4]; first compound 1 µM) | relative viability ([2]; first compound 0.03162 µM) | relative viability ([3]; first compound 0.03162 µM) | relative viability ([4]; first compound 0.03162 µM)
NCI-H650 | 0.516 | 0.328 | 0.355 | 0.398 | 0.289 | 0.619 | 0.446 | 0.58 | 0.475 | 1.02 | 0.364 | 0.659 | 0.489 | 1.24 | 0.79 | 0.775 | 0.624 | – | – | –
Calu-6 | – | – | – | – | – | 0.867 | 0.662 | 0.551 | 0.451 | 0.908 | 0.698 | 0.508 | 0.371 | 0.817 | 0.751 | 0.695 | 0.465 | 0.68 | 0.779 | 0.864
LCLC-97TM1 | 0.694 | 0.572 | 0.738 | 0.585 | 0.329 | 0.345 | 0.257 | 0.313 | 0.259 | 0.199 | 0.122 | 0.157 | 0.101 | 0.291 | 0.189 | 0.209 | 0.189 | – | – | –
NCI-H441 | 0.518 | 0.525 | 0.522 | 0.362 | 0.221 | 0.685 | 0.474 | 0.546 | 0.433 | 0.559 | 0.406 | 0.304 | 0.191 | – | 0.677 | 0.426 | 0.418 | 0.593 | 0.317 | 0.635
NCI-H522 | 0.896 | 0.658 | 0.809 | 0.922 | 0.914 | – | – | – | – | – | – | – | – | – | – | – | – | – | – | –
NCI-H2347 | 0.341 | – | 0.266 | 0.247 | 0.245 | 0.632 | 0.498 | 0.588 | 0.558 | 0.538 | 0.584 | 0.47 | 0.492 | 1.15 | 0.642 | 0.789 | 0.597 | 0.602 | 0.772 | 0.979
NCI-H2228 | 0.546 | 0.449 | 0.418 | 0.409 | 0.408 | 0.447 | 0.406 | 0.31 | 0.369 | 0.298 | 0.289 | 0.358 | 0.482 | 0.73 | 0.609 | 0.59 | 0.589 | 0.45 | 0.351 | 0.566
NCI-H1355 | 0.774 | 0.587 | 0.588 | 0.569 | 0.384 | 1.13 | 0.886 | 0.875 | 0.682 | 0.449 | 0.23 | 0.273 | 0.241 | 0.823 | 0.797 | 0.779 | 0.501 | – | – | –
HCC-44 | – | – | – | – | – | 0.738 | 0.789 | 0.747 | 0.85 | 0.658 | 0.544 | 0.642 | 0.521 | 0.728 | 0.819 | 0.798 | 0.774 | 0.803 | 0.538 | 0.789
NCI-H1650 | 0.29 | 0.287 | 0.275 | 0.275 | 0.208 | 0.957 | 0.776 | 0.684 | 0.548 | 0.548 | 0.383 | 0.414 | 0.312 | – | – | – | – | 0.724 | 0.223 | –
NCI-H1944 | 0.211 | 0.162 | 0.193 | 0.19 | 0.147 | 1.01 | 0.904 | 0.98 | 0.851 | 0.317 | 0.334 | 0.265 | 0.228 | 0.859 | 0.648 | 0.758 | 0.525 | 0.969 | 0.332 | 0.723
ChaGo-K-1 | 0.545 | 0.539 | 0.615 | 0.594 | 0.593 | 0.961 | 1.07 | 1.12 | 1.13 | 0.836 | 0.753 | 0.955 | 1.12 | – | – | – | – | 0.639 | 0.51 | –
NCI-H1793 | 0.409 | – | 0.359 | 0.342 | 0.221 | – | – | – | – | 0.241 | 0.285 | 0.224 | 0.219 | 0.749 | 0.687 | 0.487 | 0.547 | – | 0.351 | 0.73
NCI-H1299 | – | – | – | – | – | 0.938 | 0.86 | 0.7 | 0.631 | 0.762 | 0.541 | 0.347 | 0.259 | 1 | 0.949 | 0.956 | 0.865 | 0.895 | 0.486 | 1.02
SW 900 | 0.641 | – | 0.543 | 0.479 | 0.46 | – | – | – | – | – | – | – | – | – | – | – | – | – | – | –
NCI-H1395 | 0.399 | 0.382 | 0.345 | 0.325 | 0.333 | – | – | – | – | 0.616 | 0.507 | 0.494 | 0.425 | 1.05 | 0.79 | 0.875 | 0.686 | – | 0.542 | 0.835
A549 | – | – | – | – | – | 0.776 | 0.472 | 0.362 | 0.29 | 0.472 | 0.293 | 0.283 | 0.203 | 0.741 | 0.486 | 0.356 | 0.254 | 0.65 | 0.318 | 0.651
NCI-H1703 | – | – | – | – | – | 0.845 | 0.513 | 0.505 | 0.227 | 0.225 | 0.242 | 0.252 | 0.21 | 0.298 | 0.301 | 0.231 | 0.182 | – | 0.211 | 0.346
NCI-H2342 | 0.324 | 0.302 | 0.306 | 0.301 | 0.314 | – | – | – | – | – | – | – | – | – | – | – | – | – | – | –
IA-LM | – | – | – | – | – | 0.748 | 0.373 | 0.138 | 0.0793 | 0.299 | 0.167 | 0.113 | 0.0912 | 0.826 | 0.456 | 0.373 | 0.144 | 0.505 | 0.215 | 0.675
